Like-named read-outs stand apart in the source and are kept apart here.
Tests used:
xanthan depolymerase [1] = experiment: Substrate specificity of xanthan depolymerase; format: biochemical, Bacillus sp. (culture NRRL B-15992); conditions: forty μg of enzyme per assay
Protocol: (§1) A novel xanthan depolymerase was purified from the culture supernatant and examined for its effect on degrading xanthan. In the following, enzyme assays were conducted with either viscosity or reducing sugar measurements by incubating a 1.25 ml xanthan stock solution and a small amount of enzyme(s) at 25° C. Xanthan stock solution was prepared by dissolving 0.188% xanthan, 0.4 mM MgSO4, and 0.03 mM MnSO4 in 0.05 M sodium acetate buffer pH 5.4. At certain time intervals samples were taken for either viscosity or reducing sugar assay. Viscosity was measured at 25° C. (using a Contraves low-shear 30 rheometer, Middlesex, U.K. at a shear rate of 1.3 sec.^-1 1). The rheometer was equipped with a refrigerated circulating bath (Neslab Endoccal bath, Portsmouth, N.H.). Reducing sugars, calculated as glucose, were determined by the method of Somogyi, M., (1945), "A New Reagent for the Determination of Sugars", J. Biol. Chem. 160, 61-69. […] The changes in viscosity and reducing sugars between two time intervals (1.0 min to 2.0 min for Δ cps, 0.5 min to 1.5 min for Δ reducing sugars) were measured. Enzyme activity (in units) was expressed as Δ cps/min (depolymerase) or Δμmoles reducing sugar group released (as glucose) per min. (for both endo and exoglucanases). Specific enzyme activity was expressed as units per mg of protein.

xanthan depolymerase [2] = experiment: Inhibition of xanthan depolymerase activity, assayed viscosimetrically; format: biochemical, Bacillus sp. (culture NRRL B-15992)
Protocol: as §1
Various chemicals including thiols, metal ions and metal-chelating agents were tested for inhibition of xanthan depolymerase activity. These chemicals (at 1 mM concentration unless otherwise stated) were added into xanthan stock solutions. Enzyme activity was assayed viscosimetrically.

culture B-15992 [3] = experiment: Effect of chemicals and biocide on growth of culture B-15992 in xanthan broth (viscosity loss); format: cell-based, Bacillus sp. / Flavobacterium sp. mixed culture NRRL B-15992
Protocol: Chemicals and biocides, including those used in enhanced oil recovery operations were studied for their effect on the growth of culture B-15992 and on the activity of xanthan-degrading enzyme(s). Both aerobic and anaerobic conditions were tested. In order to simulate the conditions used in EOR field operation, xanthan was produced in the laboratory by growing Xanthomonas campestris according to the published procedure, Jeanes, A., et al, (1976), "Polysaccharide (xanthan) of Xanthomonas campestris NRRL B-1459: Procedures for culture maintenance and polysaccharide production, purification and analysis". Agricultural Research Service, U.S. Department of Agriculture AR-NC-51. After centrifugation, the culture broth was autoclaved and was diluted with brine to about 300 cps viscosity. A cell suspension of culture B-15992 obtained from colonies grown on agar plates was used as the innoculum. Growth of B-15992 was followed by monitoring decreases of viscosity of the culture broth and by microscopic observation.

culture B-15992 [4] = test system: culture B-15992
Text: The stable mixed culture is hereinafter designated NRRL B-15992.

OC[C@H]1O[C@@H](O[C@H]2[C@H](O)[C@@H](O)C(O)O[C@@H]2CO)[C@H](O)[C@@H](O)[C@@H]1O (single isomer, unassigned) [D(+) cellobiose]
Enzyme Activity (μmoles reducing sugar/min) (xanthan depolymerase [1]): 0 μmoles reducing sugar/min

c1cnc2c(c1)ccc1cccnc12 [1,10-phenanthroline]
% Inhibition (xanthan depolymerase [2]; inhibitor 1 mM): 0%

O=C(O)c1cc(SSc2ccc([N+](=O)[O-])c(C(=O)O)c2)ccc1[N+](=O)[O-] [5,5'-dithio-bis-2-n-nitrobenzoic acid]
% Inhibition (xanthan depolymerase [2]; inhibitor 1 mM): 0%

Oc1cccc2cccnc12 [8-hydroxyquinoline]
% Inhibition (xanthan depolymerase [2]): 0%

OC[C@H]1O[C@H](O[C@H]2O[C@H](CO)[C@@H](O)[C@H](O)[C@H]2O)[C@H](O)[C@@H](O)[C@@H]1O [D(+) trehalose]
Enzyme Activity (μmoles reducing sugar/min) (xanthan depolymerase [1]): 0 μmoles reducing sugar/min

N#CC(Br)(Br)C(N)=O [DBNPA, 2,2-dibromo-3-nitrilopropionamide]
prevention of growth of B-15992 (culture B-15992 [3]; 10 ppm): not effective in preventing the growth of B-15992
time until solution viscosity was lost (culture B-15992 [3]; 10 ppm, aerobic): ≤ 5 days
Viscosity (cps after days incubation) Aerobic (culture B-15992 [3]; 10 ppm, aerobic, 5 days): 1.5 cps
Viscosity (cps after days incubation) Anaerobic (culture B-15992 [3]; 10 ppm): 300 cps

[Na+].[O-]c1cc(Cl)c(Cl)cc1Cl [Dowicide B, sodium trichlorophenate]
inhibition of xanthan depolymerase activity (xanthan depolymerase [2]; 100 ppm): failed to inhibit

O=C(O)CN(CCN(CC(=O)O)CC(=O)O)CC(=O)O [EDTA]
% Inhibition (xanthan depolymerase [2]): 0%

C=O [HCHO, formaldehyde]
inhibition of xanthan depolymerase activity (xanthan depolymerase [2]): not inhibited
time for B-15992 to degrade the xanthan solution (culture B-15992 [3]; 25 ppm, aerobic): 9 days
Viscosity (cps after days incubation) Aerobic (culture B-15992 [3]; 25 ppm, aerobic, 9 days, about 300 cps at start): 1.5 cps
Viscosity (cps after days incubation) Anaerobic (culture B-15992 [3]; 25 ppm): 300 cps
prevention of growth of B-15992 (culture B-15992 [3]; 25 ppm, compared with 10 ppm DBNPA): somewhat more effective
Viscosity (cps after days incubation) Aerobic (culture B-15992 [3]; 50 ppm, aerobic): 300 cps
Viscosity (cps after days incubation) Anaerobic (culture B-15992 [3]; 50 ppm): 300 cps
changes in solution viscosity or cell growth (culture B-15992 [3]; 50 ppm, during 30 days of incubation): no changes in solution viscosity or cell growth

[Cl-].[K+] [KCl]
inhibition of xanthan depolymerase activity (xanthan depolymerase [2]; 1 mM): not inhibited

[K+].[OH-] [KOH]
inhibition of xanthan depolymerase activity (xanthan depolymerase [2]; 5.0 mM (Trizma ph 8.5)): not inhibited

N#CSCSC#N [MBT 3522, methylene bisthiocyanate]
inhibition of xanthan depolymerase activity (xanthan depolymerase [2]; 100 ppm): failed to inhibit

CCN1C(=O)C=CC1=O [N--ethylmaleimide]
% Inhibition (xanthan depolymerase [2]; inhibitor 1 mM): 40%

O=S([O-])S(=O)[O-].[Na+].[Na+] [Na2 S2 O4, sodium dithionite]
inhibition of xanthan depolymerase activity (xanthan depolymerase [2]; 0.2%): not inhibited
inhibition of xanthan depolymerase activity (xanthan depolymerase [2]; 100 ppm): not inhibited
Viscosity (cps after days incubation) Aerobic (culture B-15992 [3]; 75 ppm, aerobic, xanthan broth about 300 cps at start): 1.0 cps
Viscosity (cps after days incubation) Anaerobic (culture B-15992 [3]; 75 ppm, about 300 cps at start): 300 cps

[Cl-].[Na+] [NaCl]
growth of culture B-15992 (culture B-15992 [4]; 10% salt concentration): completely inhibited
growth of culture B-15992 (culture B-15992 [4]; salt concentration between 6-8%): somewhat slower
growth of culture B-15992 (culture B-15992 [4]; up to 5% salt (NaCl) concentration): not inhibited
inhibition of xanthan depolymerase activity (xanthan depolymerase [2]): not inhibited

[Na+].[OH-] [NaOH]
inhibition of xanthan depolymerase activity (xanthan depolymerase [2]; 5.0 mM (Trizma ph 8.5)): not inhibited

NC(CO)(CO)CO [Trizma]
inhibition of xanthan depolymerase activity (xanthan depolymerase [2]): not inhibited

N.N.O=S(=O)(O)O [ammonium sulfate]
inhibition of xanthan depolymerase activity (xanthan depolymerase [2]): not inhibited

Clc1ccccc1 [chlorobenzene]
inhibition of xanthan depolymerase activity (xanthan depolymerase [2]; 100 ppm): not inhibited

ClC(Cl)Cl [chloroform]
inhibition of xanthan depolymerase activity (xanthan depolymerase [2]): not inhibited

O=C(O)CC(O)(CC(=O)O)C(=O)O [citric acid]
inhibition of xanthan depolymerase activity (xanthan depolymerase [2]; 5.5 mM): not inhibited

N#CC(Br)(Br)C(N)=O [dow Antimicrobial 7287, 2,2-dibromo-3-nitrilopropionamide]
inhibition of xanthan depolymerase activity (xanthan depolymerase [2]; 100 ppm): failed to inhibit

[Cl][Fe]([Cl])[Cl] [ferric chloride]
% Inhibition (xanthan depolymerase [2]): 100%
inhibition of xanthan depolymerase activity (xanthan depolymerase [2]): inhibited strongly

c1c[nH]cn1 [imidazole]
% Inhibition (xanthan depolymerase [2]): 30%

NC(=O)CI [iodoacetamide]
% Inhibition (xanthan depolymerase [2]; inhibitor 1 mM): 0%

O=C(O)CI [iodoacetic acid]
% Inhibition (xanthan depolymerase [2]): 0%

O=C(O)c1cc[c]([Hg+])cc1.[OH-] [p-hydroxymercuribenzoate]
% Inhibition (xanthan depolymerase [2]; inhibitor 1 mM): 40%

[N-]=[N+]=[N-] [sodium azide]
% Inhibition (xanthan depolymerase [2]; inhibitor 1 mM): 0%

OCl [sodium hypochlorite]
inhibition of xanthan depolymerase activity (xanthan depolymerase [2]; 100 ppm): not inhibited

On1ccccc1=S [sodium omadine]
inhibition of xanthan depolymerase activity (xanthan depolymerase [2]): failed to inhibit

NNC(N)=S [thiosemicarbazide]
% Inhibition (xanthan depolymerase [2]; inhibitor 1 mM): 20%

NC(N)=S [thiourea]
% Inhibition (xanthan depolymerase [2]; inhibitor 1 mM): 20%

c1ccc(-c2ccccn2)nc1 [α, α' bipyridyl]
% Inhibition (xanthan depolymerase [2]; inhibitor 1 mM): 30%

O=C(CCl)c1ccc(O)c(O)c1 [α-chloro-3,4-dihydroxyacetophenone]
inhibition of xanthan depolymerase activity (xanthan depolymerase [2]; 100 ppm): not inhibited

Triton X-100
inhibition of xanthan depolymerase activity (xanthan depolymerase [2]; 4%): not inhibited
Viscosity (cps after days incubation) Aerobic (culture B-15992 [3]; 500 ppm, aerobic): 90 cps
Viscosity (cps after days incubation) Anaerobic (culture B-15992 [3]; 500 ppm): 300 cps

arsenomolybdate
inhibition of xanthan depolymerase activity (xanthan depolymerase [2]; concentrations of Table VI): inhibited strongly
% Inhibition (xanthan depolymerase [2]; inhibitor 4%): 100%

chlorophenol
inhibition of xanthan depolymerase activity (xanthan depolymerase [2]; 100 ppm): not inhibited

ferrous sulfate
inhibition of xanthan depolymerase activity (xanthan depolymerase [2]; 5.5 mM): not inhibited

From patent US4690891A, “Method and the microorganism and enzyme used therein for degrading the xanthan molecule” (Exxon Research and Engineering Company, priority 1985, dated 1987)
